# Results reported in patent publication US20240261237A1, “REDUCING SIDE EFFECTS OF NMDA RECEPTOR ANTAGONISTS” (Seelos Therapeutics, Inc., priority 2021, published 2024).
# How the values were obtained:
# [1] = system: adults with major depressive disorder (MDD) at imminent risk of suicide; experiment: Example 4 Phase 2 study: MADRS Total; type: in vivo, human; settings: both subjects; 24 hours
# Excerpt: The Montgomery-Åsberg Depression Rating Scale (MADRS) is used to assess the severity of depression among subjects who have a diagnosis of depression. The MADRS includes 10 items and uses a 0 to 6 severity scale, scored following the interview. Higher scores indicate increasing depressive symptoms. Ratings can be added to form an overall score (range 0 to 60); no weights are used. Cut-off points include: 0 to 6—symptom absent, 7 to 19—mild depression, 20 to 34—moderate, 35 to 60—severe depression.
# (§1) MADRS is a diagnostic questionnaire that can be used to measure the severity of a depressive episode in a subject. In some embodiments, the MADRS can be used to measure the severity of depressive symptoms in a subject, for example, a subject suffering from MDD, TRD, bipolar depression, and other psychiatric disorders described herein with a depression component. In some embodiments, the MADRS can be used to measure TRD. In some embodiments, the MADRS can be used to measure other psychiatric disorders, as described herein. […]
# [2] = system: adults with major depressive disorder (MDD) at imminent risk of suicide; experiment: Example 4 Phase 2 study: MADRS item 10 (suicidality); type: in vivo, human; settings: for MADRS item 10 score: 24 hours post-administration
# Excerpt: as §1
# [3] = system: adults with major depressive disorder (MDD) at imminent risk of suicide; experiment: Example 4 Phase 2 study: STS-CMCM total score; type: in vivo, human; settings: for STS mean score: baseline 21.9; for STS-CMCM score (range 0-52 units): 24 hours post-administration
# Excerpt: The Sheehan Suicidality Tracking Scale (Sheehan-STS, S-STS) is a prospective rating scale that tracks both treatment-emergent suicidal ideation and behaviors. The Sheehan-STS is a scale with 14 core items and nine additional questions contingent on the core responses that can be administered either by a clinician or patient through self-report. Each item in the Sheehan-STS is scored on a 5-point Likert scale (0=not at all, 1=a little, 2-moderately, 3=very, and 4-extremely).
# (§2) The CMCM version of the S-STS (S-STS CMCM) has four parts, and can also provide a comprehensive description of suicidal ideation and behavior. See, e.g., Sheehan et al., Innov. Clin. Neurosci. Vol. 11, No. 9-10, pp. 93-140 (2014) The S-STS CMCM (version 01/01/19) is a clinician-rated outcome measure which assesses SI/B on multiple patient and clinician-rated items. It includes 13 suicidality items that are rated on a Likert-type scale ranging from “not at all” (0) to “extremely” (4), yielding a total score ranging from 0 to 52. The final 6 items are used only when the patient misses a visit and is unable to complete the scale; if that missed visit is due to attempted or completed suicide, the possible maximum score is […]. The CMCM also yields 5 different single-item global assessments: 1) subject-rated likelihood of a suicide attempt; 2) subject-rated treatment needed; 3) clinician global severity of suicidal impulses, thoughts, and behaviors; 4) clinician judgment of suicide risk at this time and level of management needed for suicidality; and 5) clinician judgment of subject's likelihood of making a suicide attempt or of dying by suicide in the next 7 days.
# (§3) The secondary endpoints are the change from baseline at 24 hours, as well as at Day 16, in the following: • (1) PGIS-SI/B (Day 16 only) • (2) S-STS total score (Day 16 only) • (3) CGI of Change in SI/B (CGIC-SI/B) • (4) PGI of Change in SI/B (PGIC-SI/B) • (5) S-STS Clinician-Rated Global Severity of Suicidal Impulses, Thoughts, and Behaviors • (6) S-STS Clinician judgment of subject's risk of a suicide attempt or death by suicide at this time • (7) S-STS Clinician judgment of subject's likelihood (risk) of making a suicide attempt or of dying by suicide in the next 7 days • (8) S-STS Subject-rated global severity of suicidal impulses, thoughts, and behavior • (9) S-STS Subject-rated treatment needed score • (10) MADRS item 10 response rate (response≤3 units) • (11) MADRS response (total score ≥50% reduction from baseline) • (12) MADRS remission (total score ≤12)
# [4] = system: adults with major depressive disorder (MDD) at imminent risk of suicide; experiment: Example 4 Phase 2 study: STS-CMCM risk of suicide at this time; type: in vivo, human
# Excerpt: as §2, §3
# [5] = system: adults with major depressive disorder (MDD) at imminent risk of suicide; experiment: Example 4 Phase 2 study: STS-CMCM Risk of Suicide at Within the Next 7 Days; type: in vivo, human
# Excerpt: as §2, §3
# subjects = settings: in vivo; cited from earlier work
# [6] = in vivo; cited from earlier work
# [7] = system: adults with major depressive disorder (MDD) at imminent risk of suicide; experiment: Example 4 Phase 2 study: C-SSRS; settings: 24 hours post-administration, baseline yes
# [8] = system: adults with major depressive disorder (MDD) at imminent risk of suicide; experiment: Example 4 Phase 2 study: adverse events; settings: in vivo
# [9] = system: adults with major depressive disorder (MDD) at imminent risk of suicide; experiment: Example 4 Phase 2 study: MOAA/S (sedation)
# [10] = system: adults with major depressive disorder (MDD) at imminent risk of suicide; experiment: Example 4 Phase 2 study: CADSS (dissociation); settings: for CADSS change from baseline: at 40 minutes
smiles,measurement,setting,value
"CNC1(c2ccccc2Cl)CCCCC1=O (racemic) [racemic ketamine, (R)-2-(2-chlorophenyl)-2-(methylamino)cyclohexanone and (S)-2-(2-chlorophenyl)-2-(methylamino)cyclohexanone]",reduction of MADRS Total,[1],> 50%
same,MADRS item 10 score,"[2]; Subject 1, baseline 5 units",0 units
same,MADRS item 10 score,"[2]; second subject (not named), baseline 5 units pre-dose",0 units
same,sustained response (MADRS Item 10) after the final administration,[2]; with SOC,15 days
same,patients with >14 points within-patient change from baseline in STS,[3]; Day 1,94%
same,patients with 4 points within-patient change in STS,"[3]; Day 1, 1 patient",6%
same,STS mean score,[3]; Day 1,1.7
same,STS mean score,[3]; Day 16,0.0
same,STS mean score,[3]; Day 29,0.0
same,STS-CMCM score (range 0-52 units),"[3]; Subject 1, from 18 units",zero
same,STS-CMCM score (range 0-52 units),"[3]; Subject 2, from 22 units",3 units
same,STS-CMCM score (range 0-9; risk of suicide at this time),"[4]; Subject 1, 24 hours post-administration, baseline 7 units",3 units
same,STS-CMCM score (range 0-9; risk of suicide at this time),"[4]; Subject 1, Day 9",2 units
same,STS-CMCM score (range 0-9; risk of suicide at this time),"[4]; Subject 2, 24 hours post-administration, from 7 units",3 units
same,STS-CMCM score (range 0-9; risk of suicide at this time),"[4]; Subject 2, Day 9",zero
same,STS-CMCM score (range 0-9; risk of suicide at this time),"[4]; both subjects, Day 8",2 units
same,STS-CMCM Risk of Suicide at Within the Next 7 Days score,"[5]; Subject 1, 24 hours post-administration, from 5 units",2 units
same,STS-CMCM Risk of Suicide at Within the Next 7 Days score,"[5]; Subject 2, 24 hours post-administration, baseline 7 units",1 unit
same,STS-CMCM Risk of Suicide at Within the Next 7 Days score,[5]; the scores on Day 4,1 unit
same,STS-CMCM Risk of Suicide at Within the Next 7 Days score,[5]; the scores on Day 8,0 units
same,movement during the anesthetic recovery phase / locomotor activity,subjects,increased movement during the anesthetic recovery phase
same,antidepressant properties,[6],exhibit antidepressant properties
same,C-SSRS score for suicidal ideation (yes or no),[7]; Subject 1,no
same,C-SSRS score for suicidal ideation (yes or no),[7]; Subject 2,no
same,serious adverse events,[8],no serious adverse events were observed
same,MOAA/S score of the 1 subject with a score <5 units on subsequent dosing days,[9]; 6-hour time-point on Day 4,4 units
same,subjects with MOAA/S score of 5 units at all time-points,"[9]; Day 1, 7 subjects",5 of 7
same,"MOAA/S score, all subjects","[9]; Day 1, no one below",≥ 4 units
same,subjects with no dissociation (CADSS),"[10]; Days 1 and 4, 7 subjects",four of the 7
same,subjects reporting dissociation,"[10]; after Day 4 (on Day 11 at 40 minutes), 7 subjects",1
same,CADSS change from baseline,[10]; Day 4 (after second dose),2.3
same,CADSS change from baseline,[10]; Day 8 (after third dose),0.4
same,CADSS change from baseline,[10]; after first dose,3.8
same,sedation or dissociation,[10]; entire patient cohort to the Day 29/30 endpoint,no clinically meaningful sedation or dissociation
NC1(c2ccccc2Cl)CCCC(O)C1=O (stereo not shown) [6-hydroxynorketamine],movement during the anesthetic recovery phase / locomotor activity,subjects,no anesthetic or locomotor activity
same,antidepressant properties,[6],exhibit antidepressant properties
NC1(c2ccccc2Cl)CCCCC1=O (stereo not shown) [norketamine],movement during the anesthetic recovery phase / locomotor activity,subjects,increased movement during the anesthetic recovery phase
